Test [1] has as its system 4th stage larvae (L4) of Dirofilaria immitis. Description: Dirofilaria immitis, L4 Stage (DiL4) In Vitro Assay. The settings on record: Dirofilaria immitis, 72 h, read-out: DiL4 Minimum Effective Dose (MED), approximately 72 hours incubation; L4 larvae assessed for survival or paralysis. It is filed as cell-based.
Test [2] has as its system third stage larvae of Haemonchus contortus. The test is described as follows: Haemonchus contortus L3 (HcL3) Assay. It is filed as cell-based. The settings on record: 96 h, read-out: HcL3 Minimum Effective Dose (MED).

The structures appear in SMILES notation.

For `CC(C)C[C@H]1C(=O)O[C@H](Cc2ccc(Cn3nc(C#N)cc3C#N)cc2)C(=O)N(C)[C@@H](CC(C)C)C(=O)O[C@H](C)C(=O)N(C)[C@@H](CC(C)C)C(=O)O[C@H](Cc2ccc(Cn3nc(C#N)cc3C#N)cc2)C(=O)N(C)[C@@H](CC(C)C)C(=O)O[C@H](C)C(=O)N1C` [Example 1b-66, 1,1′-(((((2R,5S,8R,11S,14R,17S,20R,23S)-5,11,17,23-tetraisobutyl-4,8,10,16,20,22-hexamethyl-3,6,9,12,15,18,21,24-octaoxo-1,7,13,19-tetraoxa-4,10,16,22-tetraazacyclotetracosane-2,14-diyl)bis(methylene))bis(4,1-phenylene))bis(methylene))bis(1H-pyrazole-3,5-dicarbonitrile)], the minimal effective concentration in test [1] was not above 0.0001 µM; in test [2], not above 1 µM.

Take `CC(C)C[C@H]1C(=O)O[C@H](Cc2ccc(Cn3ccnc3Br)cc2)C(=O)N(C)[C@@H](CC(C)C)C(=O)O[C@H](C)C(=O)N(C)[C@@H](CC(C)C)C(=O)O[C@H](Cc2ccc(Cn3ccnc3Br)cc2)C(=O)N(C)[C@@H](CC(C)C)C(=O)O[C@H](C)C(=O)N1C` [Example 6-3, (3S,6R,9S,12R,15S,18R,21S,24R)-6,18-bis[[4-[(2-bromoimidazol-1-yl)methyl]phenyl]methyl]-3,9,15,21-tetraisobutyl-4,10,12,16,22,24-hexamethyl-1,7,13,19-tetraoxa-4,10,16,22-tetrazacyclotetracosane-2,5,8,11,14,17,20,23-octaone]: the minimal effective concentration in test [1] is not above 0.0001 µM; in test [2], 1 to 10 µM.

Turning to `CC(C)C[C@H]1C(=O)O[C@H](Cc2ccc(Cn3ccnc3Cl)cc2)C(=O)N(C)[C@@H](CC(C)C)C(=O)O[C@H](C)C(=O)N(C)[C@@H](CC(C)C)C(=O)O[C@H](Cc2ccccc2)C(=O)N(C)[C@@H](CC(C)C)C(=O)O[C@H](C)C(=O)N1C` [Example 8-9, (3S,6R,9S,12R,15S,18R,21S,24R)-6-benzyl-18-(4-((2-chloro-1H-imidazol-1-yl)methyl)benzyl)-3,9,15,21-tetraisobutyl-4,10,12,16,22,24-hexamethyl-1,7,13,19-tetraoxa-4,10,16,22-tetraazacyclotetracosan-2,5,8,11,14,17,20,23-octaone], the minimal effective concentration fell in the range of 0.0001 to 0.001 µM in test [1] and 1 to 10 µM in test [2].

`Cc1cccc(-c2ccnn2Cc2ccc(C[C@H]3OC(=O)[C@H](CC(C)C)N(C)C(=O)[C@@H](C)OC(=O)[C@H](CC(C)C)N(C)C(=O)[C@@H](Cc4ccc(Cn5nccc5-c5cccc(C)n5)cc4)OC(=O)[C@H](CC(C)C)N(C)C(=O)[C@@H](C)OC(=O)[C@H](CC(C)C)N(C)C3=O)cc2)n1` [Example 1b-177, (3S,6R,9S,12R,15S,18R,21S,24R)-3,9,15,21-tetraisobutyl-4,6,10,16,18,22-hexamethyl-12,24-bis(4-((5-(6-methylpyridin-2-yl)-1H-pyrazol-1-yl)methyl)benzyl)-1,7,13,19-tetraoxa-4,10,16,22-tetraazacyclotetracosan-2,5,8,11,14,17,20,23-octaone]: the values for the minimal effective concentration in test [1] and in test [2] were not above 0.0001 µM and not above 1 µM, respectively.

In the case of `COCc1ccnn1Cc1ccc(C[C@H]2OC(=O)[C@H](CC(C)C)N(C)C(=O)[C@@H](C)OC(=O)[C@H](CC(C)C)N(C)C(=O)[C@@H](Cc3ccc(Cn4nccc4COC)cc3)OC(=O)[C@H](CC(C)C)N(C)C(=O)[C@@H](C)OC(=O)[C@H](CC(C)C)N(C)C2=O)cc1` [Example 1b-166, (3S,6R,9S,12R,15S,18R,21S,24R)-3,9,15,21-tetraisobutyl-6,18-bis(4-((5-(methoxymethyl)-1H-pyrazol-1-yl)methyl)benzyl)-4,10,12,16,22,24-hexamethyl-1,7,13,19-tetraoxa-4,10,16,22-tetraazacyclotetracosan-2,5,8,11,14,17,20,23-octaone], the minimal effective concentration in test [1] is not above 0.0001 µM; in test [2], 1 to 10 µM.

Consider `C#Cc1cnn(Cc2ccc(C[C@H]3OC(=O)[C@H](CC(C)C)N(C)C(=O)[C@@H](C)OC(=O)[C@H](CC(C)C)N(C)C(=O)[C@@H](Cc4ccc(Cn5cc(C#C)cn5)cc4)OC(=O)[C@H](CC(C)C)N(C)C(=O)[C@@H](C)OC(=O)[C@H](CC(C)C)N(C)C3=O)cc2)c1` [Example 1b-32, (3S,6R,9S,12R,15S,18R,21S,24R)-6,18-bis({4-[(4-ethynyl-1H-pyrazol-1 yl)methyl]phenyl}methyl)-4,10,12,16,22,24-hexamethyl-3,9,15,21-tetrakis(2-methylpropyl)-1,7,13,19-tetraoxa-4,10,16,22-tetraazacyclotetracosan-2,5,8,11,14,17,20,23-octaone], for which the minimal effective concentration is 0.0001 to 0.001 µM in test [1] and 10 to 100 µM in test [2].

For the compound `CC(C)C[C@H]1C(=O)O[C@H](Cc2ccc(C(C)(C)n3cc(OC(C)C)cn3)cc2)C(=O)N(C)[C@@H](CC(C)C)C(=O)O[C@H](C)C(=O)N(C)[C@@H](CC(C)C)C(=O)O[C@H](Cc2ccc(C(C)(C)n3cc(OC(C)C)cn3)cc2)C(=O)N(C)[C@@H](CC(C)C)C(=O)O[C@H](C)C(=O)N1C` [Example 1c-10, (3S,6R,9S,12R,15S,18R,21S,24R)-3,9,15,21-tetraisobutyl-6,18-bis(4-(2-(4-isopropoxy-1H-pyrazol-1-yl)propan-2-yl)benzyl)-4,10,12,16,22,24-hexamethyl-1,7,13,19-tetraoxa-4,10,16,22-tetraazacyclotetracosan-2,5,8,11,14,17,20,23-octaone], the minimal effective concentration in test [1] is not above 0.0001 µM; in test [2] it was not above 1 µM.

Turning to `CC(C)C[C@H]1C(=O)O[C@H](Cc2ccc(Cn3cc(-c4ccncn4)cn3)cc2)C(=O)N(C)[C@@H](CC(C)C)C(=O)O[C@H](C)C(=O)N(C)[C@@H](CC(C)C)C(=O)O[C@H](Cc2ccc(Cn3cc(-c4ccncn4)cn3)cc2)C(=O)N(C)[C@@H](CC(C)C)C(=O)O[C@H](C)C(=O)N1C` [Example 1b-86, (3S,6R,9S,12R,15S,18R,21S,24R)-3,9,15,21-tetraisobutyl-4,6,10,16,18,22-hexamethyl-12,24-bis(4-((4-(pyrimidin-4-yl)-1H-pyrazol-1-yl)methyl)benzyl)-1,7,13,19-tetraoxa-4,10,16,22-tetraazacyclotetracosan-2,5,8,11,14,17,20,23-octaone], the minimal effective concentration in test [1] lay in the range of 0.0001 to 0.001 µM; in test [2], 10 to 100 µM.

Turning to `CC(C)C[C@H]1C(=O)O[C@H](Cc2ccc(C3(n4cc(OC(C)C)cn4)CCC3)cc2)C(=O)N(C)[C@@H](CC(C)C)C(=O)O[C@H](C)C(=O)N(C)[C@@H](CC(C)C)C(=O)O[C@H](Cc2ccc(C3(n4cc(OC(C)C)cn4)CCC3)cc2)C(=O)N(C)[C@@H](CC(C)C)C(=O)O[C@H](C)C(=O)N1C` [Example 1c-3, (3S,6R,9S,12R,15S,18R,21S,24R)-3,9,15,21-tetraisobutyl-6,18-bis(4-(1-(4-isopropoxy-1H-pyrazol-1-yl)cyclobutyl)benzyl)-4,10,12,16,22,24-hexamethyl-1,7,13,19-tetraoxa-4,10,16,22-tetraazacyclotetracosan-2,5,8,11,14,17,20,23-octaone], the minimal effective concentration in test [1] is not above 0.0001 µM; in test [2] it was not above 1 µM.

Consider `CC(C)C[C@H]1C(=O)O[C@H](Cc2ccc(Cn3ccc(Cl)n3)cc2)C(=O)N(C)[C@@H](CC(C)C)C(=O)O[C@H](C)C(=O)N(C)[C@@H](CC(C)C)C(=O)O[C@H](Cc2ccc(Cn3ccc(Cl)n3)cc2)C(=O)N(C)[C@@H](CC(C)C)C(=O)O[C@H](C)C(=O)N1C` [Example 1b-96, (3S,6R,9S,12R,15S,18R,21S,24R)-6,18-bis(4-((3-chloro-1H-pyrazol-1-yl)methyl)benzyl)-3,9,15,21-tetraisobutyl-4,10,12,16,22,24-hexamethyl-1,7,13,19-tetraoxa-4,10,16,22-tetraazacyclotetracosan-2,5,8,11,14,17,20,23-octaone], for which the results for the minimal effective concentration in test [1] and in test [2] were not above 0.0001 µM and not above 1 µM, respectively.

For the compound `Cc1ccnn1Cc1ccc(C[C@H]2OC(=O)[C@H](CC(C)C)N(C)C(=O)[C@@H](C)OC(=O)[C@H](CC(C)C)N(C)C(=O)[C@@H](Cc3ccc(Cn4nccc4C)cc3)OC(=O)[C@H](CC(C)C)N(C)C(=O)[C@@H](C)OC(=O)[C@H](CC(C)C)N(C)C2=O)cc1` [Example 1b-160, (3S,6R,9S,12R,15S,18R,21S,24R)-3,9,15,21-tetraisobutyl-4,6,10,16,18,22-hexamethyl-12,24-bis(4-((5-methyl-1H-pyrazol-1-yl)methyl)benzyl)-1,7,13,19-tetraoxa-4,10,16,22-tetraazacyclotetracosan-2,5,8,11,14,17,20,23-octaone], the minimal effective concentration in test [1] was 0.0001 to 0.001 µM; in test [2], not above 1 µM.

In the case of `CC(C)C[C@H]1C(=O)O[C@H](Cc2ccc(C3(n4cccn4)CCC3)cc2)C(=O)N(C)[C@@H](CC(C)C)C(=O)O[C@H](C)C(=O)N(C)[C@@H](CC(C)C)C(=O)O[C@H](Cc2ccc(C3(n4cccn4)CCC3)cc2)C(=O)N(C)[C@@H](CC(C)C)C(=O)O[C@H](C)C(=O)N1C` [Example 1c-1, (3S,6R,9S,12R,15S,18R,21S,24R)-6,18-bis(4-(1-(1H-pyrazol-1-yl)cyclobutyl)benzyl)-3,9,15,21-tetraisobutyl-4,10,12,16,22,24-hexamethyl-1,7,13,19-tetraoxa-4,10,16,22-tetraazacyclotetracosan-2,5,8,11,14,17,20,23-octaone], the minimal effective concentration in test [1] is not above 0.0001 µM; in test [2], not above 1 µM.

With `CCc1ncnn1Cc1ccc(C[C@H]2OC(=O)[C@H](CC(C)C)N(C)C(=O)[C@@H](C)OC(=O)[C@H](CC(C)C)N(C)C(=O)[C@@H](Cc3ccc(Cn4ncnc4CC)cc3)OC(=O)[C@H](CC(C)C)N(C)C(=O)[C@@H](C)OC(=O)[C@H](CC(C)C)N(C)C2=O)cc1` [Example 9-50, (3S,6R,9S,12R,15S,18R,21S,24R)-6,18-bis(4-((5-ethyl-1H-1,2,4-triazol-1-yl)methyl)benzyl)-3,9,15,21-tetraisobutyl-4,10,12,16,22,24-hexamethyl-1,7,13,19-tetraoxa-4,10,16,22-tetraazacyclotetracosan-2,5,8,11,14,17,20,23-octaone], the minimal effective concentration in test [1] lay within 0.001 to 0.01 µM; in test [2], 1 to 10 µM.
